According to ChEMBL document CHEMBL1201862, “PubChem BioAssay data set” (2004):
One block for each molecule: values may come before it. Calls of active or inactive are those of the source.

Tests used:
[1] = target: T1, Ubiquitin-conjugating enzyme E2 N (Homo sapiens, UniProt P61088); format: functional
T1 sequence (P61088 whole entry): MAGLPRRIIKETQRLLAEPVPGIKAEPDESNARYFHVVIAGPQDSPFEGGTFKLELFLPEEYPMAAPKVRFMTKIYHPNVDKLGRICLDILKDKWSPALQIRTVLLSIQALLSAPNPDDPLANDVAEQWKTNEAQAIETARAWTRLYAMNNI

Bcl-2-related protein A1 = target: T2, Bcl-2-related protein A1 (Mus musculus, UniProt Q07440); format: functional;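 note: confirmatory dose–response counterscreen on Bfl-1, used to check hits from a UBC13 polyubiquitin inhibitor campaign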
T2 sequence (Q07440 whole entry): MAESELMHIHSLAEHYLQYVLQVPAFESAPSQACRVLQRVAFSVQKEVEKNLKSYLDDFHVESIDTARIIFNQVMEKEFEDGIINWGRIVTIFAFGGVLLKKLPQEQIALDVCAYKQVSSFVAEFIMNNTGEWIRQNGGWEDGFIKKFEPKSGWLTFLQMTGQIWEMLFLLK

[2] = target: T1, Ubiquitin-conjugating enzyme E2 N; format: functional; remark: listed apart in the source
Estrogen receptor = target: T3, Estrogen receptor (Homo sapiens, UniProt P03372);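 note: potency for inhibiting coactivator peptide recruitment to the receptor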
T3 sequence (P03372 whole entry): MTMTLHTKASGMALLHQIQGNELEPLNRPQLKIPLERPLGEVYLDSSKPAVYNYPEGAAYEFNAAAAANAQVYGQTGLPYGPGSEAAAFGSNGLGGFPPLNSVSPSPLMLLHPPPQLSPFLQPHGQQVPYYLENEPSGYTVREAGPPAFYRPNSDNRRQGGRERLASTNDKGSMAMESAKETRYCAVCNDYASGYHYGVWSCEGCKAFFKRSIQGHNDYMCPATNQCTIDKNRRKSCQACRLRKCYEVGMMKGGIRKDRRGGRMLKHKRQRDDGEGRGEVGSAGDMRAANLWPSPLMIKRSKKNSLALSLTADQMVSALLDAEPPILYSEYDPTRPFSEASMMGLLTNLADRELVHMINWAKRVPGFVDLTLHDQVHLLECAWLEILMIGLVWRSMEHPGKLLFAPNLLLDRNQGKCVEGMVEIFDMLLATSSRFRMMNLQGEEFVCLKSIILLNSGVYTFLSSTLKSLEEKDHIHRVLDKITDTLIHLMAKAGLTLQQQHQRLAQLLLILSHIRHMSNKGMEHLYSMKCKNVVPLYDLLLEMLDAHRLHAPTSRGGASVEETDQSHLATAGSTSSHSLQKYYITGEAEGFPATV

[3] = Luminescence Cell-Based Dose Confirmation HTS to Identify Inhibitors of Platelet Dense Granule Release. [Related pubchem assays: 1663 (Primary HTS), 1678 (Summary of Project)]; format: functional
[4] = target: Luciferin 4-monooxygenase (Photinus pyralis, UniProt P08659); assay: inhibition of purified Photinus pyralis luciferase – biochemical, luminescence, dose response (AID 1891)
[5] = target: G-protein coupled receptor 55 (Homo sapiens, UniProt Q9Y2T6); assay: selective activators of receptor GPR55 – imaging, U2OS cells, beta-arrestin-GFP redistribution, primary screen (AID 1961); format: functional
[6] = target: E3 ubiquitin-protein ligase XIAP (Homo sapiens, UniProt P98170); assay: Counter Screen using XIAP-Bir3 for Chemical Antagonists of Bir1/2 domains of IAP-family anti-apoptotic proteins. [Related pubchem assays (depositor defined):AID1018, AID1449, AID1514, AID1638, AID1749, AID1750, AID488957, AID488963]
[7] = target: T4, Rac GTPase-activating protein 1 (Homo sapiens, UniProt Q9H0H5); assay: blockers of MgcRacGAP-driven Rac1 GTP hydrolysis – biochemical, ADP Hunter fluorescence, primary and confirmatory, confirmation (AID 624330); format: functional
T4 sequence (Q9H0H5 whole entry): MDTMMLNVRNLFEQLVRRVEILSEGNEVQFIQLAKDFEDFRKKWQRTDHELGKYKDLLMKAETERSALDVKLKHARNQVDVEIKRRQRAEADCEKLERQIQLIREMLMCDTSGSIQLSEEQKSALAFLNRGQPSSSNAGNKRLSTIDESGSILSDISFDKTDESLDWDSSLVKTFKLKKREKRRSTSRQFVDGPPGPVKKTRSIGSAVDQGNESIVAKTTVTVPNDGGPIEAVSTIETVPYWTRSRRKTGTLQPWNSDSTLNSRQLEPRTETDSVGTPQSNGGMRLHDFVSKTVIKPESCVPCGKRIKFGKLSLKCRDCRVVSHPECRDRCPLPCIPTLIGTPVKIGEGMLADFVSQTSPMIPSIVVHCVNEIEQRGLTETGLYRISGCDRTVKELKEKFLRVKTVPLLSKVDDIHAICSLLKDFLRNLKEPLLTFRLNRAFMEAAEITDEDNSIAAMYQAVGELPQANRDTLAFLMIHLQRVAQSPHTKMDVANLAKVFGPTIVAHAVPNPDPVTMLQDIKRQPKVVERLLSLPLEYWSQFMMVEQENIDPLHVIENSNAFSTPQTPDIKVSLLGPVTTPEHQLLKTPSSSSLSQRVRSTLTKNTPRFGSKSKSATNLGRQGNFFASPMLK

[8] = viability loss in HeLa cells – cytotoxicity control for MgcRacGAP inhibitor project, dose response (AID 624300); format: functional
[9] = target: Glucose-6-phosphate 1-dehydrogenase (Homo sapiens, UniProt P11413); assay: inhibition of Homo sapiens G6PD, dose series – biochemical, fluorescence, selectivity assay for P. falciparum G6PD inhibitor project, dose response (AID 504792); format: functional
Hexokinase = target: T5, Hexokinase (Trypanosoma brucei, UniProt Q38C41); assay: Confirmation assay for inhibitors of Trypanosoma brucei hexokinase 1-Analogue-first series. [Related pubchem assays (depositor defined):AID1430, AID1632, AID2516, AID2560, AID2579, AID2600, AID449725, AID492951]; format: functional
T5 sequence (Q38C41 whole entry): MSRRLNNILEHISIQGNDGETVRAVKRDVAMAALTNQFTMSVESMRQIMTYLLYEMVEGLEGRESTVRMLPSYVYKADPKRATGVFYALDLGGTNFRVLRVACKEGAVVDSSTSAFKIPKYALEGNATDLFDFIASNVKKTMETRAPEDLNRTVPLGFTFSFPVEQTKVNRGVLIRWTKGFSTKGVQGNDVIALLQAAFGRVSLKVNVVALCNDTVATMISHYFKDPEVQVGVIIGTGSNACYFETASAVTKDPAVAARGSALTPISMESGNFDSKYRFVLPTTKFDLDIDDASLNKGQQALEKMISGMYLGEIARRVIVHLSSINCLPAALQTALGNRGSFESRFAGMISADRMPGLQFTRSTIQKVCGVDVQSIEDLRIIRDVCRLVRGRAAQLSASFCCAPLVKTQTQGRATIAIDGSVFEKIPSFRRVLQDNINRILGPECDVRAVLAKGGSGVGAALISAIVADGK

[10] = target: DNA dC->dU-editing enzyme APOBEC-3A (Homo sapiens, UniProt P31941); assay: A3A deaminase inhibition for selectivity – biochemical, dose response (AID 504722); format: functional
[11] = target: DNA dC->dU-editing enzyme APOBEC-3G (Homo sapiens, UniProt Q9HC16); assay: Dose Response confirmation of small molecule APOBEC3G DNA Deaminase Inhibitors via a fluorescence-based single-stranded DNA deaminase assay. [Related pubchem assays (depositor defined):AID493012, AID493028]; format: functional
DNA dC->dU-editing enzyme APOBEC-3G, sequence (Q9HC16 whole entry): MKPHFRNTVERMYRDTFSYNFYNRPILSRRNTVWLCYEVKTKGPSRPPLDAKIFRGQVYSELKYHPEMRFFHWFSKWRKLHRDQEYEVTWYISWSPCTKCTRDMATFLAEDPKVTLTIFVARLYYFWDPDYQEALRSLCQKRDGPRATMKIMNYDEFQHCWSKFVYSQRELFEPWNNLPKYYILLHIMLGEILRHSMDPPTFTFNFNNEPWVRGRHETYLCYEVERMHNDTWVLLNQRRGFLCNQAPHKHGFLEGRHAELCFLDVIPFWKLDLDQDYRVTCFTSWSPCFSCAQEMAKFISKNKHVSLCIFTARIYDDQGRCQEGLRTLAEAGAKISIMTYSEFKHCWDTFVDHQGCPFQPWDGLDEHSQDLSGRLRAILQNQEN

Luciferin 4-monooxygenase, sequence (P08659 whole entry): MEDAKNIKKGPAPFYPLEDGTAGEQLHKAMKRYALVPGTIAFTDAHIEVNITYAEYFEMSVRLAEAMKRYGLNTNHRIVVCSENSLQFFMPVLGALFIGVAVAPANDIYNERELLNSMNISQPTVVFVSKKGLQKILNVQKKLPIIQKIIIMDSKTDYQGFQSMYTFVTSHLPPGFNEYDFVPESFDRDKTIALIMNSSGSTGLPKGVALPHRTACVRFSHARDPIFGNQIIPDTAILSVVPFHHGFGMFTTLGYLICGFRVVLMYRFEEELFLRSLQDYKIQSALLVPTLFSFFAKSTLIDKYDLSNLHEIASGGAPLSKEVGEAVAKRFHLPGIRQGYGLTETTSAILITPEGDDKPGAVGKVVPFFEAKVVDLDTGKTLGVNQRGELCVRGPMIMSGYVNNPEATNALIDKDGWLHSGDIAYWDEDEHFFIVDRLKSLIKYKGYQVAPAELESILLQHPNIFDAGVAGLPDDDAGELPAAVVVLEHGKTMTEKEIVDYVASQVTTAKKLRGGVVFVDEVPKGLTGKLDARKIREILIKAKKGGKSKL
E3 ubiquitin-protein ligase XIAP, sequence (P98170 whole entry): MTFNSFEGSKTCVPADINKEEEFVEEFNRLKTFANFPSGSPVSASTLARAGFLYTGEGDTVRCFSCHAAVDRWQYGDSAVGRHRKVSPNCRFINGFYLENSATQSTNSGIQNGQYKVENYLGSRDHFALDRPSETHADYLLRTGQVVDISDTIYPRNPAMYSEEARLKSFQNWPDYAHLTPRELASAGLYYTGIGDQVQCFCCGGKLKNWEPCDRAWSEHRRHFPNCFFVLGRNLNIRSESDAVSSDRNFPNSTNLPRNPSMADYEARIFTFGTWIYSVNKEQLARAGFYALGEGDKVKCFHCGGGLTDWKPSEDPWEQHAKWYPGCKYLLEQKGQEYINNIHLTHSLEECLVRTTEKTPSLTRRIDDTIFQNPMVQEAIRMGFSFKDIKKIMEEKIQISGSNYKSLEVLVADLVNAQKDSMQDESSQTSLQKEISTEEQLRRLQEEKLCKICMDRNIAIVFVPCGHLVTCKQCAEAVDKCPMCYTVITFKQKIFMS
Glucose-6-phosphate 1-dehydrogenase, sequence (P11413 whole entry): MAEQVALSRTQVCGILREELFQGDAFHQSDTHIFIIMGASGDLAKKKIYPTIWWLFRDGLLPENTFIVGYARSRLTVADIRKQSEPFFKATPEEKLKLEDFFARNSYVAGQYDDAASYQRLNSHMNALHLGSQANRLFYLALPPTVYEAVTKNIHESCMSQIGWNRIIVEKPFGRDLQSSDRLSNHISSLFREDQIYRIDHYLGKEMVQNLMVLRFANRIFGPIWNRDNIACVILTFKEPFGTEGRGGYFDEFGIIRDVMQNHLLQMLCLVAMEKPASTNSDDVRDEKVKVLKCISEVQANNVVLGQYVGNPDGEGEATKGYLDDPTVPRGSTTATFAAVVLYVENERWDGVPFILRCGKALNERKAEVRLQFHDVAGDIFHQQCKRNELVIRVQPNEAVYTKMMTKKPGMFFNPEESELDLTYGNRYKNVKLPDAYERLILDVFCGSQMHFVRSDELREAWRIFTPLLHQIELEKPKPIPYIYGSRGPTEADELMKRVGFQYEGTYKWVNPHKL
DNA dC->dU-editing enzyme APOBEC-3A, sequence (P31941 whole entry): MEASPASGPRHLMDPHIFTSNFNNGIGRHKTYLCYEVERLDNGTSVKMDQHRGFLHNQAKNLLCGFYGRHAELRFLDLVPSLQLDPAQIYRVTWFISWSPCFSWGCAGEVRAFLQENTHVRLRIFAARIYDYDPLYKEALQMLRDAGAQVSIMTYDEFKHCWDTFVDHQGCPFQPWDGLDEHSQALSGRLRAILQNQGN
G-protein coupled receptor 55, sequence (Q9Y2T6 whole entry): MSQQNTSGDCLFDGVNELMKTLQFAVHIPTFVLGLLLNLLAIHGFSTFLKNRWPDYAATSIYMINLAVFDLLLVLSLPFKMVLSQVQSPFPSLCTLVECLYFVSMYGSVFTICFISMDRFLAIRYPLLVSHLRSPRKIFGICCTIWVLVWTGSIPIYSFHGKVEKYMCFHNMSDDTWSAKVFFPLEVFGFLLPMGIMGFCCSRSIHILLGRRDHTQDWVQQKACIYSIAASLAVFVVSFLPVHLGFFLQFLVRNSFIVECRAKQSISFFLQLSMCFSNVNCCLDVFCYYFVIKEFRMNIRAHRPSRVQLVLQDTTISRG

- IC50 [1]: 5.27 µM (active)
- IC50 (Bcl-2-related protein A1): > 20 µM (inactive)
- IC50 [2]: 5.19 µM (active)
Structure (SMILES): CCOc1ccc(NC(=O)Cn2c(=O)n(CCCC(=O)NC3CCN(Cc4ccccc4)CC3)c(=O)c3ccccc32)cc1

Structure (SMILES): O=C(NCc1ccco1)c1nn2c(C(F)(F)F)cc(-c3cccs3)nc2c1Br
- IC50 (Estrogen receptor): 36.9 µM (not active)
- EC50 [3]: > 112 µM (not active)
- EC50 [4]: > 112 µM (not active)
- EC50 [5]: > 32 µM (inactive)

- IC50 [6]: > 20 µM (inactive)
Structure (SMILES): O=c1[nH]c(-c2ccc(F)cc2)nc2c1sc(=S)n2-c1ccccc1

Structure (SMILES): O=c1c2ccccc2sn1-c1ccc(Cl)cc1Cl
- IC50 [7]: 31.8 µM (active)
- CC50 [8]: 74.7 µM (active)
- IC50 [9]: 17 µM (active)
- IC50 (Hexokinase): 5.03 µM (active)

Structure (SMILES): CCOC(=O)CSc1nnc(S)s1
- IC50 [10]: > 100 µM (inactive)
- IC50 [11]: 15 µM (active)

Structure (SMILES): COc1ccc(C(=O)Nc2cc(C(F)(F)F)ccc2C(=O)O)cc1
- IC50 (Hexokinase): 17 µM (active)
